Laboratory results from patent US20120101163A1, “COMPOSITION FOR INHIBITING CANCER METASTASIS” (TAIPEI MEDICAL UNIVERSITY, priority 2010, published 2012).

How the values were obtained:
[1] = system: matrix metalloproteinase-9; assay: RT-PCR, MMP-9 gene expression in HT 1080 cells; assay type: cell-based, Human
Experimental: 7. RNA Extraction and Reverse Transcription-Polymerase Chain Reaction (RT-PCR)
HT 1080 cells with appropriate cell numbers were cultured in 60 mm culturing plates for 6 hours, respectively. After the cells were attached onto the bottom of the plate and formed a monolayer, the medium in the plate was removed. Fresh serum free mediums with different concentrations of a test sample were added to the plates, respectively, and 100 nM PMA was added to each plate to induce the cells to express great quantities of matrix metalloproteinase-2 and matrix metalloproteinase-9, and the plates were placed in a temperature of 37° C. for 6 hours. After that, the total RNA of the cells were extracted with the TRIzol reagent and reverse transcripted by a reverse transcriptase to synthesize cDNA. The synthesize cDNA was used as a template to perform GADPH, matrix metalloproteinase-2 and matrix metalloproteinase-9 PCR amplifications.

[2] = biological target: T1, matrix metalloproteinase-9 (Homo sapiens, UniProt P14780); assay: Extracellular inhibition test on enzyme activity of secreted MMP-9 in cultured medium; assay type: biochemical; details: cultured medium of PMA induced HT 1080, different concentrations, 24 hours
T1 construct: matrix metalloproteinase-2 and matrix metalloproteinase-9 were secreted from the PMA induced HT 1080; endogenous in cells; host or cells: HT 1080 cells induced with 100 nM PMA
Experimental: HT 1080 cells with appropriate cell numbers were cultured in 60 mm culturing plates for 12 hours, respectively. After the cells were attached onto the bottom of the plate and formed a monolayer, the medium in the plate was removed. Fresh serum free mediums with different concentrations of a test sample were added to the plates, respectively, and 100 nM PMA was added to each plate to induce the cells to express great quantities of matrix metalloproteinase-2 and matrix metalloproteinase-9, and the plates were placed in a temperature of 37° C. for 24 hours. After centrifugation, each cultured supernatant were saved and mixed with SDS-sample buffer under the same protein contents which were then injected into a 10% SDS-polyacrylamide gel (containing 1 mg/ml gelatin) and then electrophoresed. After the electrophoresis was completed, the gel was taken out and washed with 20 mM Tris-HCl containing 25% isopropanol three times; 10 minutes per time. […]
HT 1080 cells were induced with PMA, and the cultured medium for culturing the HT 1080 cells therefrom was taken out and treated with the different concentrations of L-Glutamic acid γ-hydroxamate (DH) for 24 hours, respectively. After that the enzyme activities of the matrix metalloproteinase-2 and matrix metalloproteinase-9 in the medium were analyzed. […]

[3] = system: human umbilical vein endothelial cells; assay: Cell viability assay of human umbilical vein endothelial cells; assay type: cell-based; details: 24 hours
Experimental: A medium in a culturing plate containing cells grown covering the whole bottom of the culturing plate, was removed. The cells were washed with 10 ml of PBS, and then suspended and mixed well with 10 ml of medium (a part of the cells need to be suspended with Trypsin-EDTA buffer). The numbers of the cells were calculated by a hemocytometer, and the cells were diluted to an appropriate cell concentration and added into the wells of a 24 well culturing plate by an amount of 500 μl/well. The 24 well culturing plates were placed in an incubator at 37° C. in a humidified atmosphere containing 5% CO2. After the cells were attached onto the bottom of the wells, the medium in each well was removed, and fresh mediums with different concentrations of a test drug were added into wells, respectively (if the cells were suspension cells, the fresh medium may be added into the wells, directly). Then, the 24 well culturing plates were placed in an incubator at 37° C. in a humidified atmosphere containing 5% CO2 for 24 hours. After that, an upper medium in each well was removed. The cells were washed with a PBS buffer twice, and then an MTT solution which was prepared with a medium was added to each well. After the 24 well culturing plates were placed in an incubator at 37° C. for reacting 4-6 hours, an upper medium in each well was removed, and 100 μl of DMSO was added to each well to solubilize the formazan precipitates. After that, an ELISA reader was used to determine the absorbance for each well at 600 nm.
After human umbilical vein endothelial cells were treated with the different concentrations of L-Aspartic acid β-hydroxamate (CH) and different concentrations of L-Glutamic acid γ-hydroxamate (DH) for 24 hours, respectively, the cell viability assays were performed to the treated human umbilical vein endothelial cells and the angiogenesis conditions of the human umbilical vein endothelial cells were recorded. The results of the cell viability assays are shown as FIGS. 13 (A) and 14 (A). Photographs for the human umbilical vein endothelial cells treated with L-Aspartic acid β-hydroxamate (CH) and human umbilical vein endothelial cells treated with L-Glutamic acid γ-hydroxamate (DH) are shown as FIGS. 13 (B) and 14 (B), respectively.

HT 1080 cells = assay: Wound healing assay and colony dispersion assay (cell migration); assay type: cell-based, Human
Experimental: 8. Wound Healing Assay (Park et al., 2005; Hwang et al., 2006)
Cells with appropriate cell numbers were cultured in a 24 well culturing plate for 12 hours. After the cells were attached to each bottom of each well of the plate and formed a monolayer, the medium in the well was removed. The middle of each bottom of each well having the monolayer thereon was scraped by a 200 μl tip to form a scratched line with a width of 1 mm. The cells in each well were washed with a PBS buffer twice, and fresh mediums with different concentrations of a test drug were added to the wells, respectively and cultured for 18 hours. After that, the upper medium in each well was removed. The cells were washed with a PBS buffer twice, fixed with 100% methanol and stained with a toluidine blue. The calculation for the migration rate of the cells was:
9. Colony Dispersion Assay (Hwang et al., 2006)
Cells with appropriate cell numbers were cultured in a 24 well culturing plate for 12 hours. After the cells were attached to each bottom of each well of the plate and formed a monolayer, the medium in the well was removed. Fresh mediums with different concentrations of a test drug were added to the wells, respectively and cultured for 3 days. After that, the upper medium in each well was removed. Then, the cells were washed with a PBS buffer twice, fixed with 100% methanol and stained with a toluidine blue.

T1 sequence (P14780 94-707): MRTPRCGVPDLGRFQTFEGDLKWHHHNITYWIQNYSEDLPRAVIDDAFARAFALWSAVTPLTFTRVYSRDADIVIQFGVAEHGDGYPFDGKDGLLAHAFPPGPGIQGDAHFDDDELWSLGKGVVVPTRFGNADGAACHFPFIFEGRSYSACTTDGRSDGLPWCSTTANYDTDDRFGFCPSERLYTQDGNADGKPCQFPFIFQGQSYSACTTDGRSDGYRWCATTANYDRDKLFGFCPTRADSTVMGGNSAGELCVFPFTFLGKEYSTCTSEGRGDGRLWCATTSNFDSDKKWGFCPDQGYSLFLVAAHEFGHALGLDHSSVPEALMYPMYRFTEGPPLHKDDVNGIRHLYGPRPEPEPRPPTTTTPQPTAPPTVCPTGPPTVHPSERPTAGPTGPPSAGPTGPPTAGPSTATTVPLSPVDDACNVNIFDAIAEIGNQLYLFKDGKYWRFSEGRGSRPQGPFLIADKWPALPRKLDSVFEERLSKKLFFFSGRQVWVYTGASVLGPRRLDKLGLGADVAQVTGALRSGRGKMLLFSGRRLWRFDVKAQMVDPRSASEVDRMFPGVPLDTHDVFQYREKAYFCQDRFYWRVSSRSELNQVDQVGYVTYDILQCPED

Compound: NC(CCC(=O)NO)C(=O)O [DH, L-Glutamic acid γ-hydroxamate]
- gene expression (mRNA) of matrix metalloproteinase-9 ([1]; HT 1080 cells, 0.4, 0.8, 1.2, and 1.6, 6 hours, RT-PCR): decreased
- inhibition rate to the gene transcriptional expression of matrix metalloproteinase-9 of a cancer cell ([1]; about 0.1-2 mM, stated as embodiment, 'and/or' MMP-2): 20-80%
- direct inhibition of enzyme activity of secreted matrix metalloproteinase-9 [2]: no inhibition
- cytotoxicity to human umbilical vein endothelial cells ([3]; 0.25 mM): no cytotoxicity
- viability of human umbilical vein endothelial cells ([3]; 0.75 mM): slight decreases
- IC50 (HT 1080 cells; Homo sapiens, HT-1080, 0.4, 1.2, 2 and 2.8 mM, 18 hours): 1750 µM
- inhibition rate to cancer cell migration (HT 1080 cells; about 0.1-3 mM, stated as embodiment): 20-85%
